According to patent publication US20180280480A1, “COMPOSITIONS AND PEPTIDES HAVING DUAL GLP-1R AND GLP-2R AGONIST ACTIVITY” (priority 2014, published 2018):
Like-named read-outs stand apart in the source and are kept apart here. Ends that are not written are not given here.

Assays:
C57BL/6J mice [1] = experiment: Gut proliferation in C57BL/6J mice, PoC study 2 (liraglutide and teduglutide); format: in vivo
Source text: (§1) Forty (40, n=10, 4 groups) male C57BL/6J mice obtained from Taconic, Denmark, were used. At the time of the experiment, the mice had reached an age of 9-10 weeks. The mice were acclimatized for one week in their new environment and offered regular chow diet (Altromin 1324, Brogaarden A/S, Denmark) and domestic quality tap water. Animals were housed two per cage during the study, in a light-, temperature-, and humidity-controlled room (12-hour light: 12-hour dark cycle, lights on/off at 4 AM/4 PM hour; 22±1° C.; 50±10% relative humidity). […] Animals were uniquely identified with implantable microchips (Pet ID Microchip, E-vet) in all mice upon arrival. Animals were identified using the WS-2 weight station (MBrose ApS, Faaborg, Denmark) connected to a laptop running the HM02Lab software (Ellegaard Systems, Faaborg, Denmark). The HM02Lab software matches the body weight with ID and calculates the dose directly based on the body weight. All mice were handled for 3 days prior to the experiment to acclimatize the animals to handling and injections.

C57BL/6J mice [2] = experiment: GLP1R-GLP2R dual agonist compound study: gut wet weight; format: in vivo; settings: Day 8; 3.0 mg/kg BID SC; mean ± S.E.M.
Source text: On study day 8, the mice were terminated and the GI tract was removed for determination of the gut wet weight. The gut wet weight results are listed below in Table 12.

C57BL/6J mice [3] = experiment: GLP1R-GLP2R dual agonist compound study: cumulative food intake; format: in vivo; settings: Day 0-7; 3.0 mg/kg BID SC; mean ± S.E.M.
Source text: as §1

C57BL/6J mice [4] = experiment: GLP1R-GLP2R dual agonist compound study: oral glucose tolerance test; format: in vivo; settings: Day 7; 3.0 mg/kg BID SC; glucose 2 g/kg oral; mean ± S.E.M.
Protocol: On day 7, an oral glucose tolerance test (OGTT) was performed. Animals were mildly fasted as all food was removed 4 hours prior to the oral glucose load. Vehicle (SC) and compounds were administered subcutaneously (SC) 2 hours prior to the OGTT. At t=0 mice received an oral glucose load (2 g/kg; 4 ml/kg; 500 mg/ml, Fresenius Kabi, Sweden). Glucose was given as gavage via a gastrically-placed tube connected to a syringe ensuring accurate dosing. Blood glucose was measured from tail vein blood before glucose (at t=−120 and 0 min, baseline) and after glucose administration at t=15, 30, 60 and 120 min. Blood samples (tail vein) was collected into 10 μl heparinized glass capillary tubes and immediately suspended in buffer (0.5 ml of glucose/lactate system solution (EKF-diagnostics, Germany) and analyzed for glucose on the test day using a BIOSEN c-Line glucose meter (EKF-diagnostics, Germany) according to manufacturer's instructions. Results from the OGTT are listed below in Table 11.

GLP-2R = target: T1, GLP-2R (Homo sapiens, UniProt O95838); experiment: GLP2 receptor efficacy assay (in vitro functional screen, Euroscreen or DiscoveRx); settings: EC50 of native GLP-2 / EC50 of compound
T1 sequence (O95838 1-553): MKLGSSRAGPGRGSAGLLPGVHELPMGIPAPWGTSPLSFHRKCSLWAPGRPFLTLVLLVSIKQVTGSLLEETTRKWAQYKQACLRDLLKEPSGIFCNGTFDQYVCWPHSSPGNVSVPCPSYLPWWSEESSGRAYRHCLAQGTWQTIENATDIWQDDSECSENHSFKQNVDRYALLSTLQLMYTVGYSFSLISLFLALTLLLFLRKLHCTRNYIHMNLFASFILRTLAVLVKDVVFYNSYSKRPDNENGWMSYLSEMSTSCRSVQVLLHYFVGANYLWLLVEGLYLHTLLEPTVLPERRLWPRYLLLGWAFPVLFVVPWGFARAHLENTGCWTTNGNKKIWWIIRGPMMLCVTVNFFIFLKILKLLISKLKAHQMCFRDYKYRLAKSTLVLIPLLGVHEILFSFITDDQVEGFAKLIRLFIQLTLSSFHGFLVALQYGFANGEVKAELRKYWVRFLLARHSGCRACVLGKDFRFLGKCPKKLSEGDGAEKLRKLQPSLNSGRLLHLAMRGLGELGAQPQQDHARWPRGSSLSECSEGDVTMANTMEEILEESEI

C57BL/6J mice [5] = tested on: C57BL/6J mice
Source text: The subcutaneous injections were placed at the lower back. On study day 8, the mice were terminated and the GI tract was removed for weight determination.

lean NMRI mice = experiment: Acute effect on food intake in lean NMRI mice; format: in vivo; settings: for Cumulative food intake following administration of a single dose: 50 nmol/kg s.c., mean ± S.E.M.
Protocol: All animals were housed in groups of four. The animal room environment were controlled (targeted ranges: temperature 22±2° C.; relative humidity 50±10%; light/dark cycle: 12 hours light, 12 hours dark, lights off from 14.00 to 02.00 hours). The mice had ad libitum access to Altromin (Brogaarden, Denmark) and tap water. Mice arrived 5 days prior to the initiation of the study and were transferred to the HM-2 system. From arrival day no food was provided in the cages thereby forcing the animals to learn to eat from the food channels thus habituating the animals faster to the HM-2 system. Food intake and body weight were measured from day −3 and throughout the study. Food intake data were collected using the HM-2 real-time food intake monitoring system, an online computerized feeding system using digital weighing cells. As the animals were uniquely identified with microchips, each individual mouse was identified by its corresponding microchip upon entry and exit from the food channel. The HM-2 system continuously and in real-time mode monitored feeding activity in two independent channels and recorded the start and finishing time of each meal and the amount of food consumed by each animal within the selected time interval without human intervention. The net food intake was calculated by the HM-2 control unit software (HMLab, MBRose, Faaborg, Denmark).
Doses were administered subcutaneously (dose volume 5 ml/kg), in the lower back region. Food intake was measured up to 68 hours following the dosing of the animals.

lean C57BL/6J mice = experiment: Sub-acute effect on body weight in lean C57BL/6J mice; format: in vivo; settings: for Body weight change in percent to baseline body weight: 50 nmol/kg BID SC, mean ± S.E.M.
Protocol: Eighteen (18) male C57/BL6J mice obtained from Janvier, France, were used. At the time of experimentation the mice had reached an age of 9 weeks. The mice were acclimatized for one week in their new environment and offered regular chow diet (Altromin 1324, Brogaarden A/S, Denmark) and domestic quality tap water. Animals were housed six per cage during the study, in a light-, temperature-, and humidity-controlled room (12-hour light:12-hour dark cycle, lights on/off at 4 AM/4 PM hour; 22±1° C.; 50±10% relative humidity).
Dosing volume was 5 ml/kg, SC.
The compounds were dissolved in PBS buffer containing 0.1% BSA, pH 7.4. The subcutaneous injections were placed at the lower back. All mice were handled for 3 days prior to experimentation to acclimatize the animals to handling and injections.

human GLP-2 receptor [6] = target: T2, human GLP-2 receptor (human, UniProt O95838 1-553, limits assumed); experiment: cell-based or functional assay
T2 sequence (looked up): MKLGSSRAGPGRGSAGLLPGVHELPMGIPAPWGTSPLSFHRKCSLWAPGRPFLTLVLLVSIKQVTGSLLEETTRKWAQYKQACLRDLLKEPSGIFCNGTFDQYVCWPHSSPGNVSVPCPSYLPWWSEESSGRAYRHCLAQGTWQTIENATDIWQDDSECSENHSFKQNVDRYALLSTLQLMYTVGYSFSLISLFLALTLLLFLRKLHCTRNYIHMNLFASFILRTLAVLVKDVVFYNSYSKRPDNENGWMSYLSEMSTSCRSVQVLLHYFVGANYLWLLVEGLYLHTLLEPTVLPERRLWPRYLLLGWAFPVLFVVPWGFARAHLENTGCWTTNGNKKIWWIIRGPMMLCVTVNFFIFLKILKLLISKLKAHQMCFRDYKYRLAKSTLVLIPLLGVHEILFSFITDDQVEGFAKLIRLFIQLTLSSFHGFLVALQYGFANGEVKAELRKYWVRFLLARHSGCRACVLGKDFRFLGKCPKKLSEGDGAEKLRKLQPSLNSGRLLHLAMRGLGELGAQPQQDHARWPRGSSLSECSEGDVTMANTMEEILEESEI

human GLP-1 receptor [7] = target: T3, human GLP-1 receptor (human, UniProt P43220 24-463, limits assumed); experiment: cell-based or functional assay
human GLP-2 receptor [8] = target: T2, human GLP-2 receptor; experiment: cell-based or functional assay; remark: listed apart in the source
human GLP-1 receptor [9] = target: T3, human GLP-1 receptor; experiment: cell-based or functional assay; remark: listed apart in the source
[10] = Day 8, BID SC, liraglutide 0.2 mg/kg, teduglutide 1.0 mg/kg, alone or combined, mean ± S.E.M.

Molecule: CC[C@H](C)[C@H](NC(=O)[C@H](Cc1ccccc1)NC(=O)[C@H](CC(=O)O)NC(=O)[C@H](CCCNC(=N)N)NC(=O)[C@H](C)NC(=O)[C@H](C)NC(=O)[C@H](CC(C)C)NC(=O)[C@H](CC(N)=O)NC(=O)[C@H](CC(=O)O)NC(=O)[C@H](CC(C)C)NC(=O)[C@@H](NC(=O)[C@@H](NC(=O)[C@H](CC(N)=O)NC(=O)[C@H](CCSC)NC(=O)[C@H](CCC(=O)O)NC(=O)[C@H](CC(=O)O)NC(=O)[C@H](CO)NC(=O)[C@H](Cc1ccccc1)NC(=O)[C@H](CO)NC(=O)CNC(=O)[C@H](CC(=O)O)NC(=O)CNC(=O)[C@@H](N)Cc1c[nH]cn1)[C@@H](C)O)[C@@H](C)CC)C(=O)N[C@@H](CC(N)=O)C(=O)N[C@@H](Cc1c[nH]c2ccccc12)C(=O)N[C@@H](CC(C)C)C(=O)N[C@H](C(=O)N[C@@H](CCC(N)=O)C(=O)N[C@H](C(=O)N[C@@H](CCCCN)C(=O)N[C@H](C(=O)N[C@H](C(=O)N[C@@H](CC(=O)O)C(=O)O)[C@@H](C)O)[C@@H](C)CC)[C@@H](C)O)[C@@H](C)CC [Teduglutide]
- Gut wet weight (C57BL/6J mice [1]; [10]): 2.6 ± 0.2 ^### g
- Large intestine length (C57BL/6J mice [1]; [10]): 5.1 ± 0.6 cm
- Large intestine weight (C57BL/6J mice [1]; [10]): 0.26 ± 0.03 g
- Small intestine length (C57BL/6J mice [1]; [10]): 22.9 ± 1.6 cm
- Small intestine weight (C57BL/6J mice [1]; [10]): 1.3 ± 0.2 g
- effect of single treatment on gut weight and length (C57BL/6J mice [1]; PoC study 2, Tables 5, 6, 8, 9): increases in gut wet weight (Table 5), small intestine weight (Table 6) and small intestine length (Table 8)
- Gut wet weight (C57BL/6J mice [2]): 3.0 ± 0.3 g
- Cumulative food intake (C57BL/6J mice [3]): 31.82 ± 6.52 g
- Oral glucose tolerance test AUC, 0-120 min (C57BL/6J mice [4]): 890 ± 182 mmol·min/L
- relative GLP-2 activity (GLP-2R): 1.0

Molecule: CC[C@H](C)[C@H](NC(=O)[C@H](Cc1ccccc1)NC(=O)[C@H](CC(=O)O)NC(=O)[C@H](CCCNC(=N)N)NC(=O)[C@H](C)NC(=O)[C@H](C)NC(=O)[C@H](CC(C)C)NC(=O)[C@H](CC(N)=O)NC(=O)[C@H](CC(=O)O)NC(=O)[C@H](CC(C)C)NC(=O)[C@@H](NC(=O)[C@@H](NC(=O)[C@H](CC(N)=O)NC(=O)[C@H](CCSC)NC(=O)[C@H](CCC(=O)O)NC(=O)[C@H](CC(=O)O)NC(=O)[C@H](CO)NC(=O)[C@H](Cc1ccccc1)NC(=O)[C@H](CO)NC(=O)CNC(=O)[C@H](CC(=O)O)NC(=O)[C@H](C)NC(=O)[C@@H](N)Cc1c[nH]cn1)[C@@H](C)O)[C@@H](C)CC)C(=O)N[C@@H](CC(N)=O)C(=O)N[C@@H](Cc1c[nH]c2ccccc12)C(=O)N[C@@H](CC(C)C)C(=O)N[C@H](C(=O)N[C@@H](CCC(N)=O)C(=O)N[C@H](C(=O)N[C@@H](CCCCN)C(=O)N[C@H](C(=O)N[C@H](C(=O)N[C@@H](CC(=O)O)C(=O)O)[C@@H](C)O)[C@@H](C)CC)[C@@H](C)O)[C@@H](C)CC [GLP-2]
- Total intestine weight (C57BL/6J mice [5]; Day 8, 3 mg/kg BID SC, female C57BL/6J mice, mean ± S.E.M.): 1256 ± 30.1 mg
- increase in intestinal weight compared to vehicle (C57BL/6J mice [5]; seven days of dosing, 3.0 mg/kg each BID SC): approx. 25%

Molecule: R^1-H-G-D-G-S-F-T-S-E-L-S-T-Y-[K(C16-yE-)]-DALAARDFIAWLIQTKITDR^2 [SEQ ID NO 23]
- acute food intake compared to vehicle (lean NMRI mice; 12 and 24 hours after single dose of 50 nmol/kg): significantly reduce acute food intake to an similar extend as liraglutide
- Cumulative food intake following administration of a single dose (lean NMRI mice; 12 h after dosing): 1.82 ± 0.24 grams pr mice
- Cumulative food intake following administration of a single dose (lean NMRI mice; 24 h after dosing): 2.83 ± 0.22 grams pr mice
- Cumulative food intake following administration of a single dose (lean NMRI mice; 60 h after dosing): 11.43 ± 1.97 grams pr mice
- food intake compared to vehicle (lean NMRI mice; 60 hours after single dose of 50 nmol/kg): tends to still have an effect
- effect on body weight (lean C57BL/6J mice; 50 nmol/kg, after two days of administration, sustained up to seven days): significantly reduced the body weight
- Body weight change in percent to baseline body weight (lean C57BL/6J mice; Day 0): 100.0 ± 0.0%
- Body weight change in percent to baseline body weight (lean C57BL/6J mice; Day 2): 90.7 ± 0.8 %
- Body weight change in percent to baseline body weight (lean C57BL/6J mice; Day 5): 89.5 ± 1.8 %
- Body weight change in percent to baseline body weight (lean C57BL/6J mice; Day 7): 90.8 ± 1.4 %

B1: native human GLP-1 (ligand)
peptide: HAEGTFTSDVSSYLEGQAAKEFIAWLVKG
modifications: ends and bridges not checked
- GLP-2R, EC50 (human GLP-2 receptor [6]): > 1000 nM
- GLP-1R, EC50 (human GLP-1 receptor [7]): 0.026 nM
- GLP-2R, EC50 (human GLP-2 receptor [8]): > 100 nM
- GLP-1R, EC50 (human GLP-1 receptor [9]): 0.004 nM
